Test results as given in US10450328B2, “Crystals of thiadiazole derivative DPP-IV inhibitors and uses thereof” (CHIA TAI TIANQING PHARMACEUTICAL GROUP CO., LTD., priority 2015, dated 2019).

Legend:
[1] = target: DPP-IV (Homo sapiens, UniProt P27487); conditions: result in words; cited from earlier work
[2] = result in words; cited from earlier work
[3] = Stability test: experiments on influencing factors (light irradiation, high temperature, high humidity); assay type: physicochemical; conditions: for stability: result in words
Excerpt: Suitable amounts of the crystalline Form A obtained in Example 2 and the crystalline Form B obtained in Example 3 were taken to carry out experiments on influencing factors according to the methods described in the Chinese Pharmacopoeia, 2010 edition, Part II, Appendix.

[4] = Powder fluidity; assay type: physicochemical; conditions: result in words
[5] = High-humidity Test 92.5% RH, 5 days
[6] = High-humidity Test 92.5% RH, 10 days
[7] = High-temperature Test 40° C., 5 days
[8] = High-temperature Test 40° C., 10 days
[9] = High-temperature Test 60° C., 5 days
[10] = Light Irradiation Test 4500Lux, 5 days
[11] = Light Irradiation Test 4500Lux, 10 days
[12] = High-temperature Test 60° C., 5 days, 60 °C
[13] = High-temperature Test 60° C., 10 days, 60 °C

Chain of DPP-IV (P27487 whole entry, species assumed): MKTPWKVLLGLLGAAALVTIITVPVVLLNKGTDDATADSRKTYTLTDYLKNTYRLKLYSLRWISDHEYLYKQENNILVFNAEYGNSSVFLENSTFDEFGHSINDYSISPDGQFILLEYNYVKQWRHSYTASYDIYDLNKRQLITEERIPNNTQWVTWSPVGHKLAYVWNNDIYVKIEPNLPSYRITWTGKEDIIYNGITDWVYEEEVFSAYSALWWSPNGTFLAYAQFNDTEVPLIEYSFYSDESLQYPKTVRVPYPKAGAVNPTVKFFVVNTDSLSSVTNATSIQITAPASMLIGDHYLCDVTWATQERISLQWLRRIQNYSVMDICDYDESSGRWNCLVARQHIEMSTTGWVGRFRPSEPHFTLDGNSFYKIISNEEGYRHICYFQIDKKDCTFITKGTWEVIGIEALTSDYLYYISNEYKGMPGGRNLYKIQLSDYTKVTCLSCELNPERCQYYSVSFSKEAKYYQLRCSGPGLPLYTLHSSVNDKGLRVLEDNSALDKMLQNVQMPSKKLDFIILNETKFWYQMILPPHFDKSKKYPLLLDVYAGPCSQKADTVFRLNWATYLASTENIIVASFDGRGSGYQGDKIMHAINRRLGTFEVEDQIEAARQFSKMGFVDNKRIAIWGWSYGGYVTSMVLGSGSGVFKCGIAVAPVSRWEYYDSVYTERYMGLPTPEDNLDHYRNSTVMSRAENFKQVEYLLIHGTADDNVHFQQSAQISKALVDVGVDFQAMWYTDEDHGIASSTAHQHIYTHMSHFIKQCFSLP

Q: Which “inhibitory activity against DPP-IV” value [1] does the source give for `CC#CCn1c(N2CCC[C@@H](N)C2)nc2c1c(=O)n(Cc1ccc3nsnc3n1)c(=O)n2C` [Compound 7] here?
A: Its value is “very good inhibitory activity”.

Q: And the half-life in vivo [2]?
A: Its half-life in vivo is “suitable half-life in vivo”.

Q: What about the “metabolic level in vivo” value [2] of the same molecule?
A: Its value is “very good metabolic level in vivo”.

Q: For `CC#CCn1c(N2CCC[C@@H](N)C2)nc2c1c(=O)n(Cc1ccc3nsnc3n1)c(=O)n2C` [crystalline Form A], which “Relative Substances Main Peak %” value ([3]; 0 day) is on record?
A: The value was 98.78%.

Q: What about the “Relative Substances Maximum Single Impurity %” value ([3]; 0 day) of the same molecule?
A: The value was 0.56%.

Q: And the “Relative Substances Main Peak %” value [3, 5]?
A: The value was 98.79%.

Q: And the “Relative Substances Maximum Single Impurity %” value [3, 5]?
A: Its value is 0.61%.

Q: What about the “Relative Substances Main Peak %” value [3, 6] of the same molecule?
A: Its value is 98.84%.

Q: And the “Relative Substances Maximum Single Impurity %” value [3, 6]?
A: The value was 0.61%.

Q: What about the “Relative Substances Main Peak %” value [3, 7] of the same molecule?
A: The value was 98.72%.

Q: And the “Relative Substances Maximum Single Impurity %” value [3, 7]?
A: Its value is 0.60%.

Q: And the “Relative Substances Main Peak %” value [3, 8]?
A: The value was 98.42%.

Q: And the “Relative Substances Maximum Single Impurity %” value [3, 8]?
A: The value was 0.61%.

Q: And the “Relative Substances Main Peak %” value [3, 9]?
A: The value was 98.72%.

Q: And the “Relative Substances Maximum Single Impurity %” value [3, 9]?
A: Its value is 0.60%.

Q: And the “Relative Substances Maximum Single Impurity %” value ([3]; High-temperature Test 60° C., 10 days)?
A: Its value is 0.61%.

Q: And the “Relative Substances Main Peak %” value ([3]; High-temperature Test 60° C., 10 days, 60 °C high-temperature test)?
A: Its value is 98.74%.

Q: What about the “Relative Substances Main Peak %” value [3, 10] of the same molecule?
A: The value was 98.09%.

Q: What about the “Relative Substances Maximum Single Impurity %” value [3, 10] of the same molecule?
A: The value was 0.51%.

Q: And the “Relative Substances Main Peak %” value [3, 11]?
A: The value was 96.21%.

Q: What about the “Relative Substances Maximum Single Impurity %” value [3, 11] of the same molecule?
A: Its value is 0.70%.

Q: What about the stability [3] of the same molecule?
A: Its stability is “excellent stability”.

Q: And the powder fluidity [4]?
A: The powder fluidity was “good powder fluidity”.

Q: With `CC#CCn1c(N2CCC[C@@H](N)C2)nc2c1c(=O)n(Cc1ccc3nsnc3n1)c(=O)n2C` [crystalline Form B] as the molecule, how does the “Relative Substances Main Peak %” value ([3]; 0 day) read?
A: The value was 99.3%.

Q: And the “Relative Substances Maximum Single Impurity %” value ([3]; 0 day)?
A: The value was 0.18%.

Q: What about the “Relative Substances Main Peak %” value [3, 5] of the same molecule?
A: The value was 99.36%.

Q: What about the “Relative Substances Maximum Single Impurity %” value [3, 5] of the same molecule?
A: Its value is 0.17%.

Q: What about the “Relative Substances Main Peak %” value [3, 6] of the same molecule?
A: Its value is 99.4%.

Q: And the “Relative Substances Maximum Single Impurity %” value [3, 6]?
A: The value was 0.16%.

Q: What about the “Relative Substances Main Peak %” value [3, 7] of the same molecule?
A: The value was 99.38%.

Q: And the “Relative Substances Maximum Single Impurity %” value [3, 7]?
A: The value was 0.17%.

Q: And the “Relative Substances Main Peak %” value [3, 8]?
A: The value was 99.44%.

Q: And the “Relative Substances Maximum Single Impurity %” value [3, 8]?
A: The value was 0.15%.

Q: What about the “Relative Substances Main Peak %” value [3, 12] of the same molecule?
A: The value was 99.33%.

Q: And the “Relative Substances Maximum Single Impurity %” value [3, 12]?
A: Its value is 0.2%.

Q: What about the “Relative Substances Main Peak %” value [3, 13] of the same molecule?
A: The value was 99.12%.

Q: And the “Relative Substances Maximum Single Impurity %” value [3, 13]?
A: Its value is 0.24%.

Q: And the “Relative Substances Main Peak %” value [3, 10]?
A: Its value is 98.98%.

Q: What about the “Relative Substances Maximum Single Impurity %” value [3, 10] of the same molecule?
A: The value was 0.26%.

Q: And the “Relative Substances Main Peak %” value [3, 11]?
A: The value was 98.2%.

Q: And the “Relative Substances Maximum Single Impurity %” value [3, 11]?
A: Its value is 0.58%.

Q: What about the stability [3] of the same molecule?
A: The stability was “excellent stability”.

Q: And the powder fluidity [4]?
A: The powder fluidity was “good powder fluidity”.
